US9850283B2, “Macrocyclic inhibitors of the PD-1/PD-L1 and CD80(B7-1)/PD-L1 protein/protein interactions” (BRISTOL-MYERS SQUIBB COMPANY, priority 2013, dated 2017)
Like-named read-outs stand apart in the source and are kept apart here. Positions of bridges follow the written chain, without caps; N, C: chain ends. Non-standard residues stand in square brackets, D forms with d. Residues, ends and D or L forms follow the SMILES beside them. ξ: configuration not given here. Phe(3,4,5-F3) = N[C@@H](Cc1cc(F)c(F)c(F)c1)C(=O)O; d(cisHyp) = O=C(O)[C@H]1C[C@@H](O)CN1; Bta = N[C@@H](Cc1csc2ccccc12)C(=O)O; Hyp = O=C(O)[C@@H]1C[C@@H](O)CN1; NMeF = CN[C@@H](Cc1ccccc1)C(=O)O; dHyp = O=C(O)[C@H]1C[C@H](O)CN1; dNMeNle = CCCC[C@@H](NC)C(=O)O; NMeNle = CCCC[C@H](NC)C(=O)O; NMeM = CN[C@@H](CCSC)C(=O)O; Pip = O=C(O)[C@@H]1CCCCN1; dPip = O=C(O)[C@H]1CCCCN1; NMeA = CN[C@@H](C)C(=O)O; Dab = NCC[C@H](N)C(=O)O; Dap = NC[C@H](N)C(=O)O; ξP = O=C(O)C1CCCN1; ξC = NC(CS)C(=O)O

Columns and labels:
Human PD-L1/PD-1 = target: T1, Human PD-L1/PD-1 (Homo sapiens, UniProt Q9NZQ7); assay: HTRF PD-1-Ig/PD-L1-His binding assay (human PD-L1)
T1 construct: made in house; host or cells: HEK293T
Method in brief: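 Interaction of Fc-tagged soluble PD-1 with His-tagged soluble PD-L1 is monitored by time-resolved FRET. Donor is europium cryptate anti-Ig (1 nM final) and acceptor is APC anti-His (20 nM final). Assay buffer is dPBS with 0.1% BSA and 0.05% Tween-20.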

CMV-specific T cells = CMV-specific T cells (Homo sapiens, UniProt Q9NZQ7); assay: CMV-specific T cell function assay (IFNγ secretion, ELISA); type: cell-based
Experimental: CMV-specific T Cell Function Assay. […] AIM-V medium (Life Technologies, Grand Island, N.Y.) supplemented with 10% heat-inactivated fetal bovine serum (FBS, Sigma, St Louis, Mo.) was used at a total volume of 200 µL/well in triplicate. The cells were cultured for 4 days at 37° C., 5% CO2 at which time culture supernatant was harvested for determination of secreted IFNγ by ELISA (OptEIA hIFNγ ELISA Kit, BD Biosciences, San Jose, Calif.).

[1] = target: T2, LK35.2-hPD-L1 cells / PE-labeled PD-1-Ig (Homo sapiens, UniProt Q9NZQ7); assay: LK35.2-hPD-L1 cell binding high-content screening assay; type: cell-based
T2 construct: expressed in transfected cells; host or cells: LK35.2 mouse B cell line
Method in brief: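 Readout: high-content imaging of PE-PD-1-Ig bound to LK35.2-hPD-L1 cells. Cells plated overnight (RPMI/10% FCS); compound + 1 nM PE-PD-1-Ig, 1 h, 37 °C; 3× dPBS wash before imaging.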

[2] = value given instead of cluster, read-out: HTRF IC50 value
[3] = value given instead of cluster, read-out: CMV Recall EC50 value
[4] = cell binding assay, cell line not given, value given instead of cluster, read-out: CBA IC50 value
[5] = read-out: CMV Recall EC50 value
[6] = cell line of CBA not given (LK35.2-hPD-L1 or 293T-hPD-L1), read-out: CBA IC50 value
[7] = numeric value, read-out: HTRF IC50 values
[8] = numeric value, read-out: CMV Recall EC50 values
[9] = cell binding assay, cell line not given, numeric value, read-out: CBA IC50 values

Chain of CMV-specific T cells (Q9NZQ7 19-290): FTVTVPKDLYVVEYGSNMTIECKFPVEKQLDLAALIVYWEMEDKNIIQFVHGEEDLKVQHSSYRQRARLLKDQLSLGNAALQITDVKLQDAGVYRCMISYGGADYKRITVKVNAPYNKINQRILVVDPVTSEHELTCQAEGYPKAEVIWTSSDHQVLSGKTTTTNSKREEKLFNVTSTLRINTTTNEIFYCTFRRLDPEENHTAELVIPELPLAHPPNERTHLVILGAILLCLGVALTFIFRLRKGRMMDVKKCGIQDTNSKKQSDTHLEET
T2 sequence (Q9NZQ7 19-290): as above
T1 sequence (Q9NZQ7 with tags, fused parts or gaps): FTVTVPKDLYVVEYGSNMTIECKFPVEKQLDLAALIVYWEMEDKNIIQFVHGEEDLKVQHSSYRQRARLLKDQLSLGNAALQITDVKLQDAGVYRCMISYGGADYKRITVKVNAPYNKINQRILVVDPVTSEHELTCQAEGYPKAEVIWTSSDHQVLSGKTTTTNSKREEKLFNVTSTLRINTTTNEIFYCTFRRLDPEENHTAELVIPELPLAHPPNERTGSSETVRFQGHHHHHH

SMILES	IC50 (Human PD-L1/PD-1; [2])	EC50 (CMV-specific T cells; [3])	IC50 [1, 4]	also measured
CCCC[C@H]1C(=O)N(C)[C@@H](CCCC)C(=O)N[C@@H](CCCNC(=N)N)C(=O)N[C@H](C(=O)NCC(N)=O)CSCC(=O)N[C@@H](Cc2ccc(O)cc2)C(=O)N(C)[C@@H](C)C(=O)N[C@@H](CCN)C(=O)N2CCC[C@H]2C(=O)N[C@@H](Cc2cnc[nH]2)C(=O)N[C@@H](CCC(=O)O)C(=O)N2C[C@H](O)C[C@H]2C(=O)N[C@@H](Cc2c[nH]c3ccccc23)C(=O)N[C@@H](CO)C(=O)N[C@@H](Cc2c[nH]c3ccccc23)C(=O)N1C [Example 5025] ({CH2CO}-Y[NMeA][Dab]PHE[Hyp]WSW[NMeNle][NMeNle]RCG-NH2; thioether N-14)	7.43 nM	2.3 nM	1.16 nM	
CCCC[C@@H]1C(=O)N(C)[C@H](CCCC)C(=O)N[C@@H](C)C(=O)N[C@@H](C(=O)NCC(N)=O)CSCC(=O)N[C@@H](Cc2ccc(O)cc2)C(=O)N2CCCC2C(=O)N[C@H](CC(=O)O)C(=O)N2CCC[C@H]2C(=O)N[C@H](Cc2c[nH]cn2)C(=O)N[C@@H](CCC(=O)O)C(=O)N2CCCC2C(=O)N[C@H](Cc2c[nH]c3ccccc23)C(=O)N[C@@H](CCN)C(=O)N[C@@H](Cc2c[nH]c3ccccc23)C(=O)N1C (stereo partly drawn) [Example 1215] ({CH2CO}-Y[ξP][dD]P[dH]E[ξP][dW][Dab]W[dNMeNle][dNMeNle]A[dC]G-NH2; thioether N-14)				IC50 (Human PD-L1/PD-1; read-out: HTRF IC50 value): 50.9 nM; EC50 (CMV-specific T cells; [5]): 508 nM; IC50 [1, 6]: 92.5 nM
CCCC[C@H]1C(=O)N(C)[C@@H](CCCC)C(=O)N[C@@H](CCN)C(=O)N[C@H](C(=O)NCC(N)=O)CSCC(=O)N[C@@H](Cc2ccc(O)cc2)C(=O)N(C)[C@@H](C)C(=O)N[C@@H](CCN)C(=O)N2CCC[C@H]2C(=O)N[C@@H](Cc2c[nH]cn2)C(=O)N[C@@H](CCC(=O)O)C(=O)N2C[C@H](O)C[C@H]2C(=O)N[C@@H](Cc2c[nH]c3ccccc23)C(=O)N[C@@H](CO)C(=O)N[C@@H](Cc2c[nH]c3ccccc23)C(=O)N1C [Example 5093] ({CH2CO}-Y[NMeA][Dab]PHE[Hyp]WSW[NMeNle][NMeNle][Dab]CG-NH2; thioether N-14)	6.76 nM	100 nM	3.14 nM	
CCCC[C@H]1C(=O)N(C)[C@@H](CCCC)C(=O)N[C@@H](CC(C)C)C(=O)N[C@H](C(=O)NCC(N)=O)CSCC(=O)N[C@@H](Cc2ccc(O)cc2)C(=O)N(C)[C@@H](C)C(=O)N[C@@H](CC(N)=O)C(=O)N2CCC[C@H]2C(=O)N[C@@H](CN)C(=O)N[C@@H](CCC(=O)O)C(=O)N2C[C@H](O)C[C@H]2C(=O)N[C@@H](Cc2c[nH]c3ccccc23)C(=O)N[C@@H](CCN)C(=O)N[C@@H](Cc2c[nH]c3ccccc23)C(=O)N1C [Example 5067] ({CH2CO}-Y[NMeA]NP[Dap]E[Hyp]W[Dab]W[NMeNle][NMeNle]LCG-NH2; thioether N-14)	5.77 nM	3.27 nM	1.81 nM	
CCCC[C@H]1C(=O)N([13CH3])[C@@H](CCCC)C(=O)N[C@@H](CCCNC(=N)N)C(=O)N[C@H](C(=O)NCC(N)=O)CSCC(=O)N[C@@H](Cc2ccc(O)cc2)C(=O)N([13CH3])[C@@H](C)C(=O)N[C@@H](CC(N)=O)C(=O)N2CCC[C@H]2C(=O)N[C@@H](Cc2cnc[nH]2)C(=O)N[C@@H](CC(C)C)C(=O)N2CCC[C@H]2C(=O)N[C@@H](Cc2c[nH]c3ccccc23)C(=O)N[C@@H](CO)C(=O)N[C@@H](Cc2csc3ccccc23)C(=O)N1[13CH3] [Example 6035]	4.97 nM	5.75 nM	0.763 nM	
CCCC[C@H]1C(=O)N(C)[C@@H](CCCC)C(=O)N[C@@H](CCCNC(=N)N)C(=O)NC(C(=O)NCC(N)=O)CSCC(=O)N[C@@H](Cc2ccc(O)cc2)C(=O)N(C)[C@@H](C)C(=O)N[C@@H](CC(N)=O)C(=O)N2CCC[C@H]2C(=O)N[C@@H](Cc2cnc[nH]2)C(=O)N[C@@H](CO)C(=O)N2CCC[C@H]2C(=O)N[C@@H](Cc2c[nH]c3ccccc23)C(=O)N[C@@H](CO)C(=O)N[C@@H](Cc2csc3ccccc23)C(=O)N1C (stereo partly drawn) [Example 9068] ({CH2CO}-Y[NMeA]NPHSPWS[Bta][NMeNle][NMeNle]R[ξC]G-NH2; thioether N-14)				IC50 (Human PD-L1/PD-1; [7]): 0.385 nM; EC50 (CMV-specific T cells; [8]): 249 nM; IC50 [1, 9]: 2.05 nM
CCCC[C@H]1C(=O)N(C)[C@@H](CCCC)C(=O)N[C@@H](CCCNC(=N)N)C(=O)NC(C(=O)N[C@@H](CO)C(N)=O)CSCC(=O)N[C@@H](Cc2ccc(O)cc2)C(=O)N(C)[C@@H](C)C(=O)N[C@@H](CC(N)=O)C(=O)N2CCC[C@H]2C(=O)N[C@@H](Cc2cnc[nH]2)C(=O)N[C@@H](CC(C)C)C(=O)N2CCC[C@H]2C(=O)N[C@@H](Cc2c[nH]c3ccccc23)C(=O)N[C@@H](CO)C(=O)N[C@@H](Cc2csc3ccccc23)C(=O)N1C (stereo partly drawn) [Example 9031] ({CH2CO}-Y[NMeA]NPHLPWS[Bta][NMeNle][NMeNle]R[ξC]S-NH2; thioether N-14)				IC50 (Human PD-L1/PD-1; [7]): 7.15 nM; EC50 (CMV-specific T cells; [8]): 39.4 nM; IC50 [1, 9]: 0.643 nM
CCCC[C@H]1C(=O)N(C)[C@@H](CCCC)C(=O)N[C@@H](CCCNC(=N)N)C(=O)N[C@H](C(=O)NCC(N)=O)CSCC(=O)N[C@@H](Cc2ccc(O)cc2)C(=O)N2CCCC[C@H]2C(=O)N[C@@H](CC(N)=O)C(=O)N2CCC[C@H]2C(=O)N[C@@H](Cc2cnc[nH]2)C(=O)N[C@@H](CCC(=O)O)C(=O)N2C[C@H](O)C[C@H]2C(=O)N[C@@H](Cc2c[nH]c3ccccc23)C(=O)N[C@@H](CO)C(=O)N[C@@H](Cc2c[nH]c3ccccc23)C(=O)N1C [Example 1237] ({CH2CO}-Y[Pip]NPHE[Hyp]WSW[NMeNle][NMeNle]RCG-NH2; thioether N-14)				IC50 (Human PD-L1/PD-1; read-out: HTRF IC50 value): 16.5 nM; EC50 (CMV-specific T cells; [5]): 21.9 nM; IC50 [1, 6]: 4.92 nM
CCCC[C@H]1C(=O)N2C[C@@H](O)C[C@@H]2C(=O)N[C@@H](CC(=O)O)C(=O)N[C@@H](C(C)C)C(=O)N(C)[C@@H](Cc2ccccc2)C(=O)N[C@@H](Cc2ccc(O)cc2)C(=O)N2CCCC[C@@H]2C(=O)N[C@@H](Cc2c[nH]c3ccccc23)C(=O)N[C@@H](Cc2ccc(O)cc2)C(=O)N[C@@H](CC(C)C)C(=O)N[C@H](C(=O)NCC(N)=O)CSCC(=O)N[C@@H](Cc2cc(F)c(F)c(F)c2)C(=O)N(C)[C@@H](Cc2ccccc2)C(=O)N1C [Example 3592] ({CH2CO}-[Phe(3,4,5-F3)][NMeF][NMeNle][dHyp]DV[NMeF]Y[dPip]WYLCG-NH2; thioether N-13)	4 nM	0.62 nM	0.158 nM	
CCCC[C@H]1C(=O)N2C[C@H](O)C[C@@H]2C(=O)N[C@@H](CC(=O)O)C(=O)N[C@@H](C(C)C)C(=O)N(C)[C@@H](Cc2ccccc2)C(=O)N[C@@H](Cc2ccc(O)cc2)C(=O)N2CCCC[C@@H]2C(=O)N[C@@H](Cc2c[nH]c3ccccc23)C(=O)N[C@@H](Cc2ccc(O)cc2)C(=O)N[C@@H](CC(C)C)C(=O)N[C@H](C(=O)NCC(N)=O)CSCC(=O)N[C@@H](Cc2cc(F)c(F)c(F)c2)C(=O)N(C)[C@@H](Cc2ccccc2)C(=O)N1C [Example 3590] ({CH2CO}-[Phe(3,4,5-F3)][NMeF][NMeNle][d(cisHyp)]DV[NMeF]Y[dPip]WYLCG-NH2; thioether N-13)				IC50 (Human PD-L1/PD-1; cluster symbol, read-out: HTRF IC50 cluster): 0.385 to 6.74 nM; EC50 (CMV-specific T cells; read-out: CMV Recall EC50 cluster, cluster symbol): 1000 nM; IC50 ([1]; cell binding assay, cell line not given, cluster symbol, read-out: CBA IC50 cluster): 0.158 to 4.71 nM
CCCC[C@H]1C(=O)N[C@@H](CCCNC(=N)N)C(=O)NC(C(=O)NCC(N)=O)CSCC(=O)N[C@@H](Cc2ccc(O)cc2)C(=O)N(C)[C@@H](C)C(=O)N[C@@H](CC(N)=O)C(=O)N2CCC[C@H]2C(=O)N[C@@H](CN)C(=O)N[C@@H](CC(C)C)C(=O)N2C[C@H](O)C[C@H]2C(=O)N[C@@H](Cc2c[nH]c3ccccc23)C(=O)N[C@@H](CO)C(=O)N[C@@H](Cc2c[nH]c3ccccc23)C(=O)N(C)[C@@H](CCSC)C(=O)N1C (stereo partly drawn) [Example 9091] ({CH2CO}-Y[NMeA]NP[Dap]L[Hyp]WSW[NMeM][NMeNle]R[ξC]G-NH2; thioether N-14)				IC50 (Human PD-L1/PD-1; [7]): 774 nM; EC50 (CMV-specific T cells; [8]): 5.6 nM; IC50 [1, 9]: 3.03 nM
CCCC[C@H]1C(=O)N(C)[C@@H](CCCC)C(=O)N[C@@H](CC(C)C)C(=O)N[C@H](C(=O)NCC(N)=O)CSCC(=O)N[C@@H](Cc2ccc(O)cc2)C(=O)N(C)[C@@H](C)C(=O)N[C@@H](CC(N)=O)C(=O)N2CCC[C@H]2C(=O)N[C@@H](CN)C(=O)N[C@@H](CCC(=O)O)C(=O)N2C[C@H](O)C[C@H]2C(=O)N[C@@H](Cc2c[nH]c3ccccc23)C(=O)N[C@@H](CO)C(=O)N[C@@H](Cc2c[nH]c3ccccc23)C(=O)N1C [Example 5071] ({CH2CO}-Y[NMeA]NP[Dap]E[Hyp]WSW[NMeNle][NMeNle]LCG-NH2; thioether N-14)	10.5 nM	14 nM	1.01 nM	
